For one assay, the target named is T1, PI3Kγ (Homo sapiens, UniProt P48736).
T1 construct: host or cells: THP-1
The experiment in a line: PI3Kγ cellular assay in THP-1 cells (AKT pS473 AlphaLISA). Format: cell-based. Summed up: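 Serum-starved THP-1 cells (1.8×10^5/well, serum-free DMEM) treated with compounds from 4 nM to 30 μM in 2% DMSO, then stimulated and lysed.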
(In general: Bead proximity is the source of the signal in Alpha formats.)

A further assay addresses T2, PI3Kγ (p120γ) (Homo sapiens, UniProt P48736).
T2 construct: purchased Promega V1761
Description: Inhibition of PI3K kinase activity (ADP Glo), PI3Kγ. Conditions: read-out: biochemical potency (PI3Kγ IC50). Summed up:
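Recombinant p120γ (8 nM, 2× stock) was preincubated with compound for 1 h at rt in HEPES pH 7.4, NaCl, MgCl2 and 0.05% BSA. Reaction was started with PIP2 (0.1 mg/ml, 2×) and ATP (50 μM, 2×) and ran 60 min at rt. ADP formed was read by ADP-Glo luminescence, and IC50 came from a 4-parameter fit.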
In general terms: ADP-Glo first removes unused ATP, then detects ADP through luciferase.

The mark [1] stands for this setting: Table 1, rhMCP-1 stimulated AKT pS473, read-out: cellular potency (PI3Kγ IC50).
The mark [2] stands for this setting: Table 2, rhMCP-1 stimulated AKT pS473, read-out: cellular potency (PI3Kγ IC50).
[3] abbreviates: Table 6, rhMCP-1 stimulated AKT pS473, read-out: cellular potency (PI3Kγ IC50).

The structures appear in SMILES notation. Where two headings read alike, the source gives them in different places. Some results are limits rather than exact numbers.

T1 sequence (P48736 whole entry): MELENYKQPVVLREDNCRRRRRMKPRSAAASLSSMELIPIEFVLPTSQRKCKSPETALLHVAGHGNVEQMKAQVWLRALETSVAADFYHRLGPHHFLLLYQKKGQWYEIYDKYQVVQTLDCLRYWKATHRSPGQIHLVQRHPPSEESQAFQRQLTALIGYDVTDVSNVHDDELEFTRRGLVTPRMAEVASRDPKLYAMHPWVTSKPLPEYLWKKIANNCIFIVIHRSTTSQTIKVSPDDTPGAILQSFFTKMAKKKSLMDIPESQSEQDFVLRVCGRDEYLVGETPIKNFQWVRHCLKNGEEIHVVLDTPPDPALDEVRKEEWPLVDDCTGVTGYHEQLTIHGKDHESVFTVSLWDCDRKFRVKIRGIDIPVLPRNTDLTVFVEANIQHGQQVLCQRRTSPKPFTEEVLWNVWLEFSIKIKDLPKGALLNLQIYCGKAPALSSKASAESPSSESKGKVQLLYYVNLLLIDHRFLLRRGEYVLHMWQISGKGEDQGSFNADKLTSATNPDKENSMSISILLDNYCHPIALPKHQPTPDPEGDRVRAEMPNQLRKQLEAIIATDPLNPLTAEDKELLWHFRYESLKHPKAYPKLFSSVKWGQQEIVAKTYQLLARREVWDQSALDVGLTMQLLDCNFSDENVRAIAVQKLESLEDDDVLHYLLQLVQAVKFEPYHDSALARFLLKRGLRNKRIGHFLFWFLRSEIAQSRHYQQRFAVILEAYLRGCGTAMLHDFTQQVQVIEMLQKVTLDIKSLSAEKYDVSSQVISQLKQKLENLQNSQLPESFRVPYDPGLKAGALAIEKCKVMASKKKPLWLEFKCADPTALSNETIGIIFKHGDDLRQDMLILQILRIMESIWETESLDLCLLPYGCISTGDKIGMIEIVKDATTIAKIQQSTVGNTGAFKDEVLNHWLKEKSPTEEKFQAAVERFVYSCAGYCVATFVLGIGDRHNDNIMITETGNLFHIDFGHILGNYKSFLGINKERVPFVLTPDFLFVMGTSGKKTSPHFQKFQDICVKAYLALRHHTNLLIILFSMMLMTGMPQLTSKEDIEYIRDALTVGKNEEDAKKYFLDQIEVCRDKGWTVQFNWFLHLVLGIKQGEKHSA
T2 sequence (P48736 whole entry): as above

The IC50 is the concentration that inhibits the measured activity by half. As for `C[C@@H](C1CC1)N1Cc2cc(-c3ccn4nc(N)c(C(=O)N[C@@H]5CC[C@@H](O)C5)c4n3)cc(NS(C)(=O)=O)c2C1=O` [Example 86, 2-Amino-5-{2-[(1S)-1-cyclopropylethyl]-7-methanesulfonamido-1-oxo-2,3-dihydro-1H-isoindol-5-yl}-N-[(1R,3R)-3-hydroxycyclopentyl]pyrazolo[1,5-a]pyrimidine-3-carboxamide], the IC50 is under 100 nM at PI3Kγ (setting [1]) and under 100 nM at PI3Kγ (p120γ) (Table 1, p120γ).

Turning to `CNS(=O)(=O)c1cc(-c2ccn3nc(N)c(C(=O)N[C@H]4C[C@H](O)C4)c3n2)cc2c1C(=O)N([C@@H](C)C1CC1)C2` [Example 141, 2-Amino-5-{2-[(1S)-1-cyclopropylethyl]-7-(methylsulfamoyl)-1-oxo-2,3-dihydro-1H-isoindol-5-yl}-N-[trans-3-hydroxycyclobutyl]pyrazolo[1,5-a]pyrimidine-3-carboxamide], the IC50 was under 100 nM at PI3Kγ (setting [1]) and under 100 nM on PI3Kγ (p120γ) (Table 1, p120γ).

`C[C@@H](C1CC1)N1Cc2cc(-c3ccn4nc(N)c(C(=O)NC5CC5)c4n3)cc(OC(F)F)c2C1=O` [Example 158, 2-Amino-N-cyclopropyl-5-{2-[(1S)-1-cyclopropylethyl]-7-(difluoromethoxy)-1-oxo-2,3-dihydro-1H-isoindol-5-yl}pyrazolo[1,5-a]pyrimidine-3-carboxamide]: the IC50 is under 100 nM at PI3Kγ (setting [1]) and under 100 nM at PI3Kγ (p120γ) (Table 1, p120γ).

Turning to `C[C@@H](C1CC1)N1Cc2cc(-c3ccn4nc(N)c(C(N)=O)c4n3)cc(NS(C)(=O)=O)c2C1=O` [Example 76, 5-{2-[(S)-1-Cyclopropylethyl]-7-(methylsulfonylamino)-5-isoindolinoyl}-2-amino-1,4,7a-triaza-3-indenecarboxamide], the IC50 at PI3Kγ (setting [1]) is 100 to 1000 nM; on PI3Kγ (p120γ) (Table 1, p120γ), under 100 nM.

Take `C[C@@H](C1CC1)N1Cc2cc(-c3ccn4nc(N)c(C(=O)NC5CC5)c4n3)cc(S(=O)(=O)C3CCC3)c2C1=O` [Example 136, 2-Amino-5-[7-(cyclobutanesulfonyl)-2-[(1S)-1-cyclopropylethyl]-1-oxo-2,3-dihydro-1H-isoindol-5-yl]-N-cyclopropylpyrazolo[1,5-a]pyrimidine-3-carboxamide]: the IC50 was under 100 nM on PI3Kγ (setting [1]) and under 100 nM on PI3Kγ (p120γ) (Table 1, p120γ).

Regarding `C[C@@H](C1CC1)N1Cc2cc(-c3ccn4nc(N)c(C(=O)NCCC(C)(C)O)c4n3)cc(C(F)(F)F)c2C1=O` [Example 59, 2-[(S)-1-Cyclopropylethyl]-5-{2-amino-3-[(3-hydroxy-3-methylbutylamino)carbonyl]-1,4,7a-triaza-5-indenyl}-7-(trifluoromethyl)-1-isoindolinone], the half-maximal inhibitory concentration (IC50) at PI3Kγ (setting [1]) is under 100 nM; at PI3Kγ (p120γ) (Table 1, p120γ), under 100 nM.

As for `Cc1cc(-c2ccn3nc(N)c(C(=O)N[C@H]4CCNC4=O)c3n2)cc2c1C(=O)N([C@@H](C)C1CC1)C2` [Example 225], the IC50 at PI3Kγ (setting [2]) was 100 to 1000 nM; at PI3Kγ (p120γ) (Table 2, p120γ) it was under 100 nM.

For `C[C@@H](C1CC1)N1Cc2cc(-c3ccn4nc(N)c(C(=O)NCCNS(C)(=O)=O)c4n3)cc(C(F)(F)F)c2C1=O` [Example 352], the concentration for half-maximal inhibition (IC50) on PI3Kγ (Table 3, rhMCP-1 stimulated AKT pS473, read-out: cellular potency (PI3Kγ IC50)) was 100 to 1000 nM; at PI3Kγ (p120γ) (Table 3, p120γ), under 100 nM.

With `C[C@@H](C1CC1)N1Cc2cc3cc(c2C1=O)OCCOCCNC(=O)c1c(N)nn2ccc-3nc12` [Example 71, 6-[(S)-1-Cyclopropylethyl]-19-amino-10.13-dioxa-6.16.20.21.24-pentaazapentacyclo[16.5.2.12,9.04,8.021,25]hexacosa-1(24),2,4(8),9(26),18(25),19,22-heptaene-7,17-dione], the IC50 at PI3Kγ (setting [1]) is under 100 nM; at PI3Kγ (p120γ) (Table 1, p120γ), under 100 nM.

Consider `C[C@@H](C1CC1)N1Cc2cc(-c3ccn4nc(N)c(C(=O)NCCC(C)(C)O)c4n3)cc(NS(C)(=O)=O)c2C1=O` [Example 95, 2-Amino-5-{2-[(1S)-1-cyclopropylethyl]-7-methanesulfonamido-1-oxo-2,3-dihydro-1H-isoindol-5-yl}-N-(3-hydroxy-3-methylbutyl)pyrazolo[1,5-a]pyrimidine-3-carboxamide], for which the IC50 is under 100 nM at PI3Kγ (setting [1]) and under 100 nM on PI3Kγ (p120γ) (Table 1, p120γ).

As to `Cc1cc(-c2ccn3nc(N)c(C(=O)N[C@H]4CC[C@@H]4O)c3n2)cc2c1C(=O)N([C@@H](C)C1CC1)C2` [Example 211], the half-maximal inhibitory concentration (IC50) on PI3Kγ (setting [2]) is 100 to 1000 nM; at PI3Kγ (p120γ) (Table 2, p120γ), under 100 nM.

As for `Cc1cc(-c2ccn3nc(N)c(C(=O)NCCO)c3n2)cc2c1C(=O)N([C@@H](C)C1CC1)C2` [Example 186], the half-inhibitory concentration (IC50) was 100 to 1000 nM at PI3Kγ (setting [2]) and under 100 nM on PI3Kγ (p120γ) (Table 2, p120γ).

For the compound `Cc1cc(-c2ccn3nc(N)c(C(=O)NCC4CC4)c3n2)cc2c1C(=O)N([C@@H](C)C1CC1)C2` [Example 213], the concentration for half-maximal inhibition (IC50) on PI3Kγ (setting [2]) is 100 to 1000 nM; at PI3Kγ (p120γ) (Table 2, p120γ), under 100 nM.

Regarding `Cc1cc(-c2ccn3nc(N)c(C(=O)NC4CC4)c3n2)cc2c1C(=O)N(C1CC1)C2` [Example 303], the IC50 on PI3Kγ (setting [2]) is 100 to 1000 nM; at PI3Kγ (p120γ) (Table 2, p120γ) it was under 100 nM.

As to `Cc1cc(-c2ccn3nc(N)c(C(=O)NCC(=O)Nc4ccccc4)c3n2)cc2c1C(=O)N([C@@H](C)C1CC1)C2` [Example 279], the IC50 on PI3Kγ (setting [2]) is over 1000 nM; on PI3Kγ (p120γ) (Table 2, p120γ), under 100 nM.

On to `C[C@@H](C1CC1)N1Cc2cc(-c3ccn4nc(N)c(C(=O)N[C@H]5CC[C@](O)(C(F)(F)F)CC5)c4n3)cc(NS(C)(=O)=O)c2C1=O` [Example 90, 2-Amino-5-{2-[(1S)-1-cyclopropylethyl]-7-methanesulfonamido-1-oxo-2,3-dihydro-1H-isoindol-5-yl}-N-[cis-4-hydroxy-4-(trifluoromethyl)cyclohexyl]pyrazolo[1,5-a]pyrimidine-3-carboxamide], for which the IC50 was under 100 nM at PI3Kγ (setting [1]) and under 100 nM at PI3Kγ (p120γ) (Table 1, p120γ).

In the case of `CCNC(=O)c1c(N)nn2ccc(-c3cc4c(c(NS(C)(=O)=O)c3)C(=O)N([C@@H](C)C3CC3)C4)nc12` [Example 74, 2-Amino-5-{2-[(1S)-1-cyclopropylethyl]-7-methanesulfonamido-1-oxo-2,3-dihydro-1H-isoindol-5-yl}-N-ethylpyrazolo[1,5-a]pyrimidine-3-carboxamide], the IC50 was under 100 nM on PI3Kγ (setting [1]) and under 100 nM on PI3Kγ (p120γ) (Table 1, p120γ).

Consider `Cc1cc(-c2ccn3nc(N)c(C(=O)N[C@H]4CC[C@H](O)C4)c3n2)cc2c1C(=O)N([C@@H](C)C1CC1)C2` [Example 3, 2-Amino-5-{2-[(1S)-1-cyclopropylethyl]-7-methyl-1-oxo-2,3-dihydro-1H-isoindol-5-yl}-N-[(1S,3S)-3-hydroxycyclopentyl]pyrazolo[1,5-a]pyrimidine-3-carboxamide], for which the IC50 is under 100 nM at PI3Kγ (setting [1]) and under 100 nM at PI3Kγ (p120γ) (Table 1, p120γ).

For `C[C@@H](C1CC1)N1Cc2cc(-c3ccn4nc(N)c(C(=O)N[C@H]5CC[C@](O)(C(F)(F)F)CC5)c4n3)cc(C(F)(F)F)c2C1=O` [Example 55, 2-[(S)-1-Cyclopropylethyl]-5-(2-amino-3-{[cis-4-hydroxy-4-(trifluoromethyl)cyclohexylamino]carbonyl}-1,4,7a-triaza-5-indenyl)-7-(trifluoromethyl)-1-isoindolinone], the IC50 on PI3Kγ (setting [1]) was under 100 nM; at PI3Kγ (p120γ) (Table 1, p120γ), under 100 nM.

Take `C[C@H](NC(=O)c1c(N)nn2ccc(-c3cc4c(c(NS(C)(=O)=O)c3)C(=O)N([C@@H](C)C3CC3)C4)nc12)C(N)=O` [Example 382]: the 50% inhibitory concentration (IC50) at PI3Kγ (AKT pS473, read-out: cellular potency (PI3Kγ IC50)) was 100 to 1000 nM; on PI3Kγ (p120γ) it was under 100 nM.

`C[C@@H](C1CC1)N1Cc2cc(-c3ccn4nc(N)c(C(=O)NC5CC5)c4n3)cc(S(=O)(=O)C3CCCC3)c2C1=O` [Example 137, 2-Amino-5-[7-(cyclopentanesulfonyl)-2-[(1S)-1-cyclopropylethyl]-1-oxo-2,3-dihydro-1H-isoindol-5-yl]-N-cyclopropylpyrazolo[1,5-a]pyrimidine-3-carboxamide]: the IC50 at PI3Kγ (setting [1]) is under 100 nM; at PI3Kγ (p120γ) (Table 1, p120γ), under 100 nM.

`Cc1cc(-c2ccn3nc(N)c(C(=O)NC[C@@H]4CCC(=O)N4)c3n2)cc2c1C(=O)N([C@@H](C)C1CC1)C2` [Example 271]: the IC50 at PI3Kγ (setting [2]) was 100 to 1000 nM; on PI3Kγ (p120γ) (Table 2, p120γ), under 100 nM.

Turning to `C[C@@H](C1CC1)N1Cc2cc(-c3ccn4nc(N)c(C(=O)N[C@@H]5CCC[C@H](N)C5)c4n3)cc(OC(F)(F)F)c2C1=O` [Example 33, 2-Amino-N-[(1R,3S)-3-aminocyclohexyl]-5-{2-[(1S)-1-cyclopropylethyl]-1-oxo-7-(trifluoromethoxy)-2,3-dihydro-1H-isoindol-5-yl}pyrazolo[1,5-a]pyrimidine-3-carboxamide], the IC50 is under 100 nM at PI3Kγ (setting [1]) and under 100 nM on PI3Kγ (p120γ) (Table 1, p120γ).

In the case of `C[C@@H](C1CC1)N1Cc2cc(-c3ccn4nc(N)c(C(=O)N[C@@H]5CNC(=O)C5)c4n3)cc(O[C@@H]3CCOC3)c2C1=O` [Example 443], the IC50 was over 1000 nM on PI3Kγ (setting [3]) and under 100 nM on PI3Kγ (p120γ) (Table 6, p120γ).

Consider `Nc1nn2ccc(-c3cc4c(c(OC(F)(F)F)c3)C(=O)N([C@@H](CO)C3CC3)C4)nc2c1C(=O)NC1CC1` [Example 416], for which the IC50 on PI3Kγ (setting [3]) was 100 to 1000 nM; at PI3Kγ (p120γ) (Table 6, p120γ), under 100 nM.

For `CCc1cc(-c2ccn3nc(N)c(C(=O)NC4CC4)c3n2)cc2c1C(=O)N([C@@H](C)C1CC1)C2` [Example 450], the concentration for half-maximal inhibition (IC50) at PI3Kγ (setting [3]) was 100 to 1000 nM; at PI3Kγ (p120γ) (Table 6, p120γ), under 100 nM.

Regarding `Cc1cc(-c2ccn3nc(N)c(C(=O)NC4CCNCC4)c3n2)cc2c1C(=O)N([C@@H](C)C1CC1)C2` [Example 179], the IC50 is 100 to 1000 nM at PI3Kγ (setting [2]) and under 100 nM at PI3Kγ (p120γ) (Table 2, p120γ).

The record behind these values is US20230024302A1, “2,3,5-TRISUBSTITUTED PYRAZOLO[1,5-A]PYRIMIDINE COMPOUNDS” (Arcus Biosciences, Inc., priority 2019, published 2023).
